# Columns and labels:
# [1] = tested on: mouse macrophage RAW 264.7 cells; format: cell-based; conditions: for NO production as the concentration increased: 100 ng/ml LPS, 1.25, 2.5, 5 and 10 μg/ml; for NO production as the concentration increased / Concentration at which the production of NO was the lowest: 24 hours; for Concentration at which the production of NO was the lowest: tested 1.25-10 μg/ml; for Effect relative to the same amount Brevilin-A (potency value of inflammation inhibition rate): from NO production potency formulas, FIG. 12
# Protocol: The amount of NO produced by the cultured RAW 264.7 cells and present in the culture medium was measured using a NO detection kit (cat. No. 21021, Intron) based on the Griess reaction. 100 μl of the culture medium estimated to contain NO was dispensed into 96-well plates, and then 50 μl of N1 buffer (sulfanilamide) was added thereto and reacted at room temperature for 10 minutes. Next, 50 μl of N2 buffer (naphthylethylenediamine) was added thereto and reacted at room temperature for 10 minutes, and then the absorbance was measured at 540 nm. The amount of NO produced was determined using a standard calibration curve obtained using a nitrite standard. In addition, a positive control group (CTL) was treated with only LPS and fresh medium not containing any of the components, and a negative control group was treated with only 100 ng/ml LPS. The measurement results are presented as the average value of three repeated experiments.
# [2] = tested on: mouse macrophage RAW 264.7 cells; conditions: 24 hours; for Cell viability as the concentration increased (cytotoxicity): 1.25, 2.5, 5 and 10 μg/ml; for Concentration at which the cell viability was the highest: tested 1.25-10 μg/ml; for Cell viability compared with positive control group (CTL): 10 μg/mL
# Protocol: In addition, for comparison, an NO production inhibition measurement experiment and a cell viability measurement experiment were also conducted on the synthetic anti-inflammatory agent dexamethasone.
# The experiments were conducted using mouse macrophage RAW 264.7 cells as an inflammatory model. RAW 264.7 cells were cultured in a 100 mm cell culture dish with DMEM containing 10% fetal bovine serum and 1% penicillin in a 5% CO2 incubator. Cells that reached confluence were detached using a scraper and subcultured.
# Specifically, for the experiment on cell viability, RAW 264.7 cells were dispensed on a 60-mm plate at a density of 2×10^6 cells/dish, and attached to the plate for 24 hours. Then, the cells were treated with fresh media containing each component at concentrations of 1.25, 2.5, 5 and 10 μg/ml and cultured for 24 hours. The number of viable cells was counted by measuring the dehydrogenase present in the mitochondria within the cultured cells. EZ-CYTOX reagent (EZ-1000, Daeilab) was used, and based on the absorbance measured at 450 nm, the cell viability for each concentration was calculated according to the following equation: Cell viability=(absorbance of CMX-treated group/absorbance of untreated group)×100.
smiles,measurement,setting,value
C/C=C(/C)C(=O)O[C@H]1[C@@H]2[C@H](C)C(=O)O[C@@H]2C[C@@H](C)[C@@H]2C=CC(=O)[C@]21C [Brevilin A],NO production as the concentration increased,[1],decreased
same,Concentration at which the production of NO was the lowest,[1]; 100 ng/ml LPS,5 µg/mL
same,Effect relative to the same amount Brevilin-A (potency value of inflammation inhibition rate),[1],1.0
same,Cell viability as the concentration increased (cytotoxicity),[2],no significant change
same,Concentration at which the cell viability was the highest,[2],5000 ng/mL
C=C(C)C(=O)O[C@H]1[C@@H]2[C@H](C)C(=O)O[C@@H]2C[C@@H](C)[C@@H]2C=CC(=O)[C@]21C [Arnicolide D],NO production as the concentration increased,[1],decreased
same,NO production compared with positive control group (CTL),"[1]; 5 μg/mL, 100 ng/ml LPS",lower than that in the positive control group (CTL)
same,Effect relative to the same amount Brevilin-A (potency value of inflammation inhibition rate),[1],1.5
same,Cell viability as the concentration increased (cytotoxicity),[2],no significant change
same,Concentration at which the cell viability was the highest,[2],5000 ng/mL
C/C=C(\C)C(=O)O[C@H]1[C@@H]2[C@H](C)C(=O)O[C@@H]2C[C@@H](C)[C@@H]2C=CC(=O)[C@]21C [Microhelenin C],NO production as the concentration increased,[1],decreased
same,Concentration at which the production of NO was the lowest,[1]; 100 ng/ml LPS,10 µg/mL
same,Effect relative to the same amount Brevilin-A (potency value of inflammation inhibition rate),[1],0.8
same,Cell viability compared with positive control group (CTL),[2],somewhat higher than that in the positive control group (CTL)
same,Cell viability as the concentration increased (cytotoxicity),[2],no significant change
CC(C)C(=O)O[C@H]1[C@@H]2[C@H](C)C(=O)O[C@@H]2C[C@@H](C)[C@@H]2C=CC(=O)[C@]21C [Arnicolide C],NO production as the concentration increased,[1],decreased
same,Concentration at which the production of NO was the lowest,[1]; 100 ng/ml LPS,10 µg/mL
same,Effect relative to the same amount Brevilin-A (potency value of inflammation inhibition rate),[1],0.7
same,Cell viability compared with positive control group (CTL),[2],difference in cell viability from the positive control group (CTL) was significantly small
same,Cell viability as the concentration increased (cytotoxicity),[2],no significant change
